# Source: patent US20180050993A1, “NOVEL FLUORINATED DERIVATIVES AS EGFR INHIBITORS USEFUL FOR TREATING CANCERS” (Trillium Therapeutics Inc., priority 2015, published 2018)
# Structures can show the parent of a compound that is named as a salt. Where two headings read alike, the source gives them in different places.
# Experiments:
# [1] = tested on: UACC-62; assay: NCI screening panel, growth %; type: cell-based, human; conditions: Melanoma
# Protocol: (§1) After 24 h, two plates of each cell line are fixed in situ with TCA, to represent a measurement of the cell population for each cell line at the time of drug addition (Tz). Experimental drugs are solubilised in dimethyl sulfoxide at 400-fold the desired final maximum test concentration and stored frozen prior to use. At the time of drug addition, an aliquot of frozen concentrate is thawed and diluted to twice the desired final maximum test concentration with complete medium containing 50 μg/ml gentamicin. Additional four, 10-fold or log serial dilutions are made to provide a total of five drug concentrations plus control. Aliquots of 100 μl of these different drug dilutions are added to the appropriate microtiter wells already containing 100 μl of medium, resulting in the required final drug concentrations.
# (§2) Following drug addition, the plates are incubated for an additional 48 h at 37° C., 5% CO2, 95% air, and 100% relative humidity. For adherent cells, the assay is terminated by the addition of cold TCA (trichloroacetic acid). Cells are fixed in situ by the gentle addition of 50 μl of cold 50% (w/v) TCA (final concentration, 10% TCA) and incubated for 60 minutes at 4° C. The supernatant is discarded, and the plates are washed five times with tap water and air dried. Sulforhodamine B (SRB) solution (100 μl) at 0.4% (w/v) in 1% acetic acid is added to each well, and plates are incubated for 10 minutes at room temperature. After staining, unbound dye is removed by washing five times with 1% acetic acid and the plates are air dried. Bound stain is subsequently solubilised with 10 mM trizma base, and the absorbance is read on an automated plate reader at a wavelength of 515 nm. For suspension cells, the methodology is the same except that the assay is terminated by fixing settled cells at the bottom of the wells by gently adding 50 μl of 80% TCA (final concentration, 16% TCA). Using the seven absorbance measurements [time zero, […], control growth, (C), and test growth in the presence of drug at the five concentration levels (Ti)], the percentage growth is calculated at each of the drug concentration levels. Percentage growth inhibition is calculated as: [(Ti−Tz)/(C−Tz)]×100 for concentrations in which Ti>/=Tz and [(Ti−Tz)/Tz]×100 for concentrations in which Ti<Tz.
# (§3) Three dose response parameters are calculated for each experimental agent. […] The drug concentration resulting in total growth inhibition (TGI) is calculated from Ti=Tz. […] Values are calculated for each of these three parameters if the level of activity is reached. However, if the effect is not reached or is exceeded, the value for that parameter is expressed as greater or less than the maximum or minimum concentration tested.
# [2] = tested on: UO-31; assay: NCI screening panel, growth %; type: cell-based, human; conditions: Renal
# Protocol: as §1, §2, §3
# [3] = tested on: SK-MEL-2; assay: NCI screening panel, growth %; type: cell-based, human; conditions: Melanoma
# Protocol: as §1, §2, §3
# [4] = tested on: K-562; assay: NCI screening panel, growth %; type: cell-based, human; conditions: Leukemia
# Protocol: as §1, §2, §3
# [5] = tested on: HCT-15; assay: NCI screening panel, growth %; type: cell-based, human; conditions: Colon
# Protocol: as §1, §2, §3
# [6] = tested on: MALME-3M; assay: NCI screening panel, growth %; type: cell-based, human; conditions: Melanoma
# Protocol: as §1, §2, §3
# [7] = tested on: MCF7; assay: NCI screening panel, growth %; type: cell-based, human; conditions: Breast
# Protocol: as §1, §2, §3
# [8] = tested on: NCI/ADR-RES; assay: NCI screening panel, growth %; type: cell-based, human; conditions: Ovarian
# Protocol: as §1, §2, §3
# [9] = tested on: TK-10; assay: NCI screening panel, growth %; type: cell-based, human; conditions: Renal
# Protocol: as §1, §2, §3
# [10] = tested on: EKVX; assay: NCI screening panel, growth %; type: cell-based, human; conditions: NSCLC
# Protocol: as §1, §2, §3
# [11] = tested on: SK-MEL-5; assay: NCI screening panel, growth %; type: cell-based, human; conditions: Melanoma
# Protocol: as §1, §2, §3
# [12] = tested on: SK-MEL-28; assay: NCI screening panel, growth %; type: cell-based, human; conditions: Melanoma
# Protocol: as §1, §2, §3
# [13] = tested on: HCC-2998; assay: NCI screening panel, growth %; type: cell-based, human; conditions: Colon
# Protocol: as §1, §2, §3
# [14] = tested on: HL-60(TB); assay: NCI screening panel, growth %; type: cell-based, human; conditions: Leukemia
# Protocol: as §1, §2, §3
# [15] = tested on: OVCAR-3; assay: NCI screening panel, growth %; type: cell-based, human; conditions: Ovarian
# Protocol: as §1, §2, §3
# [16] = tested on: HCT-116; assay: NCI screening panel, growth %; type: cell-based, human; conditions: Colon
# Protocol: as §1, §2, §3
# [17] = tested on: SW-620; assay: NCI screening panel, growth %; type: cell-based, human; conditions: Colon
# Protocol: as §1, §2, §3
# [18] = tested on: CAKI-1; assay: NCI screening panel, growth %; type: cell-based, human; conditions: Renal
# Protocol: as §1, §2, §3
# [19] = tested on: HT29; assay: NCI screening panel, growth %; type: cell-based, human; conditions: Colon
# Protocol: as §1, §2, §3
# [20] = tested on: NCI-H460; assay: NCI screening panel, growth %; type: cell-based, human; conditions: NSCLC
# Protocol: as §1, §2, §3
# [21] = tested on: HOP-62; assay: NCI screening panel, growth %; type: cell-based, human; conditions: NSCLC
# Protocol: as §1, §2, §3
# [22] = tested on: T-47D; assay: NCI screening panel, growth %; type: cell-based, human; conditions: Breast
# Protocol: as §1, §2, §3
# [23] = tested on: MDA-MB-435; assay: NCI screening panel, growth %; type: cell-based, human; conditions: Melanoma
# Protocol: as §1, §2, §3
# [24] = tested on: UACC-257; assay: NCI screening panel, growth %; type: cell-based, human; conditions: Melanoma
# Protocol: as §1, §2, §3
# [25] = tested on: BT-549; assay: NCI screening panel, growth %; type: cell-based, human; conditions: Breast
# Protocol: as §1, §2, §3
# [26] = tested on: IGROV1; assay: NCI screening panel, growth %; type: cell-based, human; conditions: Ovarian
# Protocol: as §1, §2, §3
# [27] = tested on: NCI-H23; assay: NCI screening panel, growth %; type: cell-based, human; conditions: NSCLC
# Protocol: as §1, §2, §3
# [28] = tested on: 786-0; assay: NCI screening panel, growth %; type: cell-based, human; conditions: Renal
# Protocol: as §1, §2, §3
# [29] = tested on: SK-OV-3; assay: NCI screening panel, growth %; type: cell-based, human; conditions: Ovarian
# Protocol: as §1, §2, §3
# [30] = tested on: SF-268; assay: NCI screening panel, growth %; type: cell-based, human; conditions: CNS
# Protocol: as §1, §2, §3
# [31] = tested on: NCI-H522; assay: NCI screening panel, growth %; type: cell-based, human; conditions: NSCLC
# Protocol: as §1, §2, §3
# [32] = Brain concentrations after PO administration in rat, peak at 8 hours (Table 5); type: in vivo; conditions: Table 5 (8 hours); for Kp at 8 h: brain/plasma, po, 50 mg/kg
# [33] = Sprague-Dawley, brain, PO 50 mg/kg
structure (smiles),measurement,setting,value
"Fc1ccc(Nc2ncnc3cc(OCCOC(F)F)c(OCCOC(F)F)cc23)c(F)c1Cl [Compound 2D•HCl, N-(3-chloro-2,4-difluoro-phenyl)-6,7-bis[2-(difluoromethoxy)ethoxy]quinazolin-4-amine]",Growth %,[1],82.70%
same,Growth %,[2],15.03%
same,Growth %,[3],79.82%
same,Growth %,[4],37.37%
same,Growth %,[5],55.49%
same,Growth %,[6],73.73%
same,Growth %,[7],66.06%
same,Growth %,[8],54.63%
same,Growth %,[9],34.04%
same,Growth %,[10],48.49%
same,Growth %,[11],74.60%
same,Growth %,[12],81.10%
same,Growth %,[13],91.93%
same,Growth %,[14],80.36%
same,Growth %,[15],60.72%
same,Growth %,[16],81.03%
same,Growth %,[17],91.49%
same,Growth %,[18],15.86%
same,Growth %,[19],58.66%
same,Growth %,[20],85.74%
same,Growth %,[21],64.36%
same,Growth %,[22],19.78%
same,Growth %,[23],56.24%
same,Growth %,[24],87.43%
same,Growth %,[25],93.32%
same,Growth %,[26],6.79%
same,Growth %,[27],78.31%
same,Growth %,[28],60.48%
same,Growth %,[29],−13.36%
same,Growth %,[30],70.93%
same,Growth %,[31],24.07%
same,Cmax,[32]; [33],6340 ng/g
same,Tmax,[32]; [33],8 h
same,Kp at 8 h,"[32]; Sprague-Dawley, read-out: AUCLast Ratio (Brain/Plasma)",1.92
same,Kp at 8 h,"[32]; Sprague-Dawley, read-out: Cmax Ratio (Brain/Plasma)",2.07
same,AUCInf,"[32]; brain, PO 50 mg/kg",101339 ng·h/g
same,AUClast,"[32]; brain, PO 50 mg/kg",99996 ng·h/g
